Data taken from the NIST ThermoML archive (doi:10.1021/acs.jced.7b00995).

Legend:
[1] = 313.15 K, Liquid, Vibrating tube method
[2] = xn = mol fraction of the nth substance listed; details: Liquid, Vibrating tube method

CCCCCCCCCCCCCCC [pentadecane]
[1]
Details	mass density [kg/m3]
100 kPa	752.2
6910 kPa	757.8
20790 kPa	766.9
34670 kPa	776.1
55490 kPa	787.5
76930 kPa	797.3

CCCCCCCCCCCCCCC [pentadecane] + O=C=O
mass density [kg/m3], [2]
Details	x2 = 0.376	x2 = 0.562	x2 = 0.757
313.15 K, 6.36 kPa	–	779.4	–
313.15 K, 6.91 kPa	770	–	–
313.15 K, 8.8 kPa	–	–	798.3
313.15 K, 11.29 kPa	–	–	804.2
313.15 K, 13.85 kPa	–	–	810.2
313.15 K, 20.79 kPa	784	796.8	828.1
313.15 K, 34.67 kPa	795.8	808.8	843.2
313.15 K, 55.49 kPa	809	829	867.8
313.15 K, 76.31 kPa	825.4	841.5	885.9
363.15 K, 6.94 kPa	725.3	–	–
363.15 K, 10.73 kPa	–	730.3	–
363.15 K, 17.13 kPa	–	–	738.8
363.15 K, 20.82 kPa	744.5	745.5	749.2
363.15 K, 34.7 kPa	754.3	768.8	780
363.15 K, 55.52 kPa	775.6	784.7	812.3
363.15 K, 76.34 kPa	787	800.8	831.7
410.15 K, 13.9 kPa	–	686.5	–
410.15 K, 13.91 kPa	693.8	–	–
410.15 K, 20.85 kPa	702.6	701.8	–
410.15 K, 21.95 kPa	–	–	682.7
410.15 K, 27.79 kPa	–	–	702
410.15 K, 34.73 kPa	723.3	724.9	723.5
410.15 K, 55.55 kPa	742.3	749.5	763.8
410.15 K, 76.37 kPa	757.3	769.3	796.1
